Assay results: PubChem BioAssay AID248 (DTP/NCI, 2004)
Several values for one entry are separate records, joined by “and”; a condition that tells them apart may be missing. Equal entries are not always repeated. Inconclusive results and toxic doses are left out. Rule as the data show it: active = T/C of 150% or more; inactive = T/C below 125%.

Test system: L1210 leukemia ip in BDF1 mice, survival T/C
Experiment: NCI In Vivo Anticancer Drug Screen. Data for tumor model L1210 Leukemia (intraperitoneal) in B6D2F1 (BDF1) mice
Settings: endpoint: mean survival time, higher = longer survival
How it was run: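 Read-out is survival time, reported as the treated-group measurement over the vehicle-control measurement.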

[1] = dose: 100.0 mg/kg/injection, schedule: Q01DX001 (ip), vehicle: saline
[2] = dose: 200.0 mg/kg/injection, schedule: Q01DX001 (ip), vehicle: saline
[3] = dose: 400.0 mg/kg/injection, schedule: Q01DX001 (ip), vehicle: saline
[4] = dose: 100.0 mg/kg/injection, schedule: Q01DX001 (ip), vehicle: Klucel (hydroxypropylcellulose) (HPC)
[5] = dose: 200.0 mg/kg/injection, schedule: Q01DX001 (ip), vehicle: Klucel (hydroxypropylcellulose) (HPC)
[6] = dose: 400.0 mg/kg/injection, schedule: Q01DX001 (ip), vehicle: Klucel (hydroxypropylcellulose) (HPC)
[7] = dose: 100.0 mg/kg/injection, schedule: Q04DX003 (ip), vehicle: saline
[8] = dose: 200.0 mg/kg/injection, schedule: Q04DX003 (ip), vehicle: saline
[9] = dose: 100.0 mg/kg/injection, schedule: Q01DX009 (ip), vehicle: Klucel (hydroxypropylcellulose) (HPC)
[10] = dose: 200.0 mg/kg/injection, schedule: Q01DX009 (ip), vehicle: Klucel (hydroxypropylcellulose) (HPC)
[11] = dose: 400.0 mg/kg/injection, schedule: Q01DX009 (ip), vehicle: Klucel (hydroxypropylcellulose) (HPC)
[12] = dose: 100.0 mg/kg/injection, schedule: Q04DX003 (ip), vehicle: saline with Tween-80
[13] = dose: 200.0 mg/kg/injection, schedule: Q04DX003 (ip), vehicle: saline with Tween-80
[14] = dose: 50.0 mg/kg/injection, schedule: Q04DX003 (ip), vehicle: saline

Measured: T/C

CC(=O)Nc1ccc2c(c1)C(c1ccccc1)=NCC(=O)N2
inactive: [1] 103 % of control | dose: 100.0 mg/kg/injection, schedule: Q01DX Z (ip), vehicle: carboxymethylcellulose (CMC) 107 % of control | dose: 100.0 mg/kg/injection, schedule: Q01DX Z (ip), vehicle: methylcellulose (MC) 100 % of control | dose: 150.0 mg/kg/injection, schedule: Q01DX Z (ip), vehicle: carboxymethylcellulose (CMC) 112 % of control and 114 % of control | dose: 150.0 mg/kg/injection, schedule: Q01DX Z (ip), vehicle: methylcellulose (MC) 103 % of control | [2] 103 % of control | dose: 225.0 mg/kg/injection, schedule: Q01DX Z (ip), vehicle: carboxymethylcellulose (CMC) 100 % of control | dose: 225.0 mg/kg/injection, schedule: Q01DX Z (ip), vehicle: methylcellulose (MC) 107 % of control | dose: 337.0 mg/kg/injection, schedule: Q01DX Z (ip), vehicle: carboxymethylcellulose (CMC) 97 % of control | dose: 337.0 mg/kg/injection, schedule: Q01DX Z (ip), vehicle: methylcellulose (MC) 109 % of control | [3] 91 % of control | dose: 600.0 mg/kg/injection, schedule: Q01DX001 (ip), vehicle: saline 98 % of control | dose: 1200.0 mg/kg/injection, schedule: Q01DX001 (ip), vehicle: saline 120 % of control | dose: 2400.0 mg/kg/injection, schedule: Q01DX001 (ip), vehicle: saline 120 % of control

COC(=O)Nc1ccccc1
inactive: [4] 97 % of control | dose: 100.0 mg/kg/injection, schedule: Q04DX002 (ip), vehicle: gum acacia 113 % of control | [5] 98 % of control | dose: 200.0 mg/kg/injection, schedule: Q04DX002 (ip), vehicle: gum acacia 100 % of control | [6] 101 % of control | dose: 400.0 mg/kg/injection, schedule: Q04DX002 (ip), vehicle: gum acacia 103 % of control

O=C(NCc1cnccn1)c1ccc([N+](=O)[O-])cc1
inactive: dose: 100.0 mg/kg/injection, schedule: Q01DX009 (ip), vehicle: saline with Tween-80 98 % of control | dose: 200.0 mg/kg/injection, schedule: Q01DX009 (ip), vehicle: saline with Tween-80 104 % of control | dose: 400.0 mg/kg/injection, schedule: Q01DX009 (ip), vehicle: saline with Tween-80 98 % of control

OC(CN1CC1)c1ccccc1 (stereo not drawn)
inactive: dose: 20.0 mg/kg/injection, schedule: Q01DX009 (ip), vehicle: Klucel (hydroxypropylcellulose) (HPC) 95 % of control | dose: 20.0 mg/kg/injection, schedule: Q04DX003 (ip), vehicle: Klucel (hydroxypropylcellulose) (HPC) 97 % of control | dose: 40.0 mg/kg/injection, schedule: Q01DX009 (ip), vehicle: Klucel (hydroxypropylcellulose) (HPC) 95 % of control | dose: 40.0 mg/kg/injection, schedule: Q04DX003 (ip), vehicle: Klucel (hydroxypropylcellulose) (HPC) 102 % of control | dose: 80.0 mg/kg/injection, schedule: Q04DX003 (ip), vehicle: Klucel (hydroxypropylcellulose) (HPC) 97 % of control

CCOC(=O)CCC(NC(=O)c1ccc(NCc2nnc3nc(N)nc(SCc4ccccc4)c3n2)cc1)C(=O)OCC (stereo not drawn)
inactive: dose: 100.0 mg/kg/injection, schedule: Q01DX001 (ip), vehicle: saline with Tween-80 103 % of control | dose: 200.0 mg/kg/injection, schedule: Q01DX001 (ip), vehicle: saline with Tween-80 100 % of control | dose: 400.0 mg/kg/injection, schedule: Q01DX001 (ip), vehicle: saline with Tween-80 105 % of control

Cc1cccc(CCc2ccc(Br)c(C)c2C)c1C
inactive: dose: 100.0 mg/kg/injection, schedule: Q01DX001 (ip), vehicle: carboxymethylcellulose (CMC) 100 % of control | dose: 200.0 mg/kg/injection, schedule: Q01DX001 (ip), vehicle: carboxymethylcellulose (CMC) 103 % of control | dose: 400.0 mg/kg/injection, schedule: Q01DX001 (ip), vehicle: carboxymethylcellulose (CMC) 94 % of control

S=C=NCc1ccc(Cl)cc1
inactive: dose: 6.25 mg/kg/injection, schedule: Q01DX009 (ip), vehicle: Klucel (hydroxypropylcellulose) (HPC) 103 % of control | dose: 12.5 mg/kg/injection, schedule: Q01DX009 (ip), vehicle: Klucel (hydroxypropylcellulose) (HPC) 92 % of control | dose: 25.0 mg/kg/injection, schedule: Q01DX009 (ip), vehicle: Klucel (hydroxypropylcellulose) (HPC) 95 % of control

CNC(=O)c1ccccc1
inactive: [7] 104 % of control | [8] 98 % of control | dose: 400.0 mg/kg/injection, schedule: Q04DX003 (ip), vehicle: saline 98 % of control

COC(=O)c1ccccc1NC(=O)Nc1cccc(OC)c1
inactive: dose: 100.0 mg/kg/injection, schedule: Q04DX002 (ip), vehicle: Klucel (hydroxypropylcellulose) (HPC) 108 % of control | dose: 200.0 mg/kg/injection, schedule: Q04DX002 (ip), vehicle: Klucel (hydroxypropylcellulose) (HPC) 97 % of control | dose: 400.0 mg/kg/injection, schedule: Q04DX002 (ip), vehicle: Klucel (hydroxypropylcellulose) (HPC) 105 % of control

CCCCN(Cc1ccccc1)C(=O)NC(C)(C)C
inactive: [9] 97 % of control | [10] 102 % of control | [11] 97 % of control

Cc1c(N)cc([N+](=O)[O-])c(C)c1[N+](=O)[O-]
inactive: dose: 50.0 mg/kg/injection, schedule: Q04DX003 (ip), vehicle: saline with Tween-80 100 % of control | [12] 96 % of control | [13] 100 % of control

O=c1ncccn1Cc1ccccc1
inactive: [4] 112 % of control | [5] 98 % of control | [6] 107 % of control

CN1CCC2=C(C1)C(c1ccccc1)c1ccccc12 (stereo not drawn)
inactive: dose: 25.0 mg/kg/injection, schedule: Q01DX009 (ip), vehicle: saline 90 % of control | dose: 50.0 mg/kg/injection, schedule: Q01DX009 (ip), vehicle: saline 95 % of control | [14] 106 % of control | dose: 100.0 mg/kg/injection, schedule: Q01DX009 (ip), vehicle: saline 102 % of control | [7] 106 % of control

NCC(O)c1ccc(O)cc1 (stereo not drawn)
inactive: [14] 101 % of control | [1] 93 % of control | [7] 97 % of control | [2] 93 % of control | [8] 98 % of control | [3] 101 % of control

CC(C)(CN)CCBr
inactive: dose: 50.0 mg/kg/injection, schedule: Q01DX001 (ip), vehicle: saline 95 % of control | [1] 88 % of control | [2] 101 % of control | [3] 92 % of control

COc1ccc(OC)c([N+](=O)[O-])c1
inactive: [1] 100 % of control | [9] 100 % of control | dose: 100.0 mg/kg/injection, schedule: Q04DX003 (ip), vehicle: Klucel (hydroxypropylcellulose) (HPC) 93 % of control | [2] 105 % of control | [10] 94 % of control | dose: 200.0 mg/kg/injection, schedule: Q04DX003 (ip), vehicle: Klucel (hydroxypropylcellulose) (HPC) 95 % of control | [3] 96 % of control | [11] 88 % of control | dose: 400.0 mg/kg/injection, schedule: Q04DX003 (ip), vehicle: Klucel (hydroxypropylcellulose) (HPC) 93 % of control

CCOC(=O)/C=C/C(=O)O.[Co]
inactive: dose: 12.5 mg/kg/injection, schedule: Q04DX003 (ip), vehicle: saline 114 % of control | dose: 25.0 mg/kg/injection, schedule: Q04DX003 (ip), vehicle: saline 118 % of control | [14] 116 % of control | [7] 118 % of control and 121 % of control

CCOC(=O)c1ccc(NC(=O)CS)cc1
inactive: [12] 89 % of control | [13] 94 % of control | dose: 400.0 mg/kg/injection, schedule: Q04DX003 (ip), vehicle: saline with Tween-80 97 % of control
